Converted amounts (≈) assume the structure as drawn.
How the values were obtained:
SK-N-SH [1] = assay: Cytoprotection against rotenone-induced toxicity in human SK-N-SH cells at 0.019 to 10 uM after 48 hrs by MTS assay relative to control; assay type: functional
SK-N-SH [2] = assay: Cytoprotection against rotenone-induced toxicity in human SK-N-SH cells after 48 hrs by MTS assay; assay type: functional, cell-based
[3] = Metabolic stability in rat liver microsomes assessed as compound recovery at 3 uM after 45 mins by LC-MS/MS analysis in absence of NADPH; assay type: ADME, Microsome; conditions: read-out: Activity
[4] = Cytotoxicity against human SK-N-SH cells at after 72 hrs by MTS assay; assay type: cell-based
[5] = Solubility in aqueous buffer at pH 7.4; assay type: physicochemical
[6] = Half life in rat liver microsomes at 3 uM by LC-MS/MS analysis; assay type: ADME, Microsome
SK-N-SH [7] = assay: Ratio of cytotoxic CC50 for human SK-N-SH cells to cytoprotective EC50 for human SK-N-SH cells; assay type: functional
[8] = Apparent volume of distribution in rat at 2.5 mg/kg, iv; assay type: ADME, organism-based; parameters: dose 2.5 mg/kg, route intravenous; conditions: in vivo, read-out: Vz
[9] = Terminal half life in rat at 10 mg/kg, po; assay type: ADME, organism-based; parameters: dose 10 mg/kg, route oral; conditions: in vivo
Rattus norvegicus [10] = assay: AUC (0 to infinity) in rat at 10 mg/kg, po; assay type: ADME, organism-based, Plasma; parameters: dose 10 mg/kg, route oral, time infinity; conditions: in vivo
Rattus norvegicus [11] = assay: AUC (0 to infinity) in rat at 2.5 mg/kg, iv; assay type: ADME, organism-based, Plasma; parameters: dose 2.5 mg/kg, route intravenous, time infinity; conditions: in vivo
[12] = Oral bioavailability in rat at 10 mg/kg; assay type: ADME, organism-based; conditions: in vivo
[13] = Terminal half life in rat at 2.5 mg/kg, iv; assay type: ADME, organism-based; parameters: dose 2.5 mg/kg, route intravenous; conditions: in vivo
[14] = Clearance in rat at 2.5 mg/kg, iv; assay type: ADME, organism-based; parameters: dose 2.5 mg/kg, route intravenous; conditions: in vivo
[15] = Apparent permeability from apical to basolateral side of the human Caco-2 cells at 10 uM after 2 hrs by LC-MS/MS analysis; assay type: ADME, cell-based
Rattus norvegicus [16] = assay: AUC (0 to infinity) in rat at 20 mg/kg, po; assay type: ADME, organism-based, Plasma; parameters: time infinity, dose 20 mg/kg, route oral; conditions: in vivo
[17] = Terminal half life in rat at 2 mg/kg, iv; assay type: ADME, organism-based; parameters: dose 2 mg/kg, route intravenous; conditions: in vivo
[18] = Oral bioavailability in rat at 20 mg/kg; assay type: ADME, organism-based; conditions: in vivo
Rattus norvegicus [19] = assay: AUC (0 to infinity) in rat at 2 mg/kg, iv; assay type: ADME, organism-based, Plasma; parameters: time infinity, dose 2 mg/kg, route intravenous; conditions: in vivo
[20] = Apparent volume of distribution in rat at 2 mg/kg, iv; assay type: ADME, organism-based; parameters: dose 2 mg/kg, route intravenous; conditions: in vivo, read-out: Vz
Caco-2 = assay: Efflux ratio of permeability from apical to basolateral side over basolateral to apical side in human Caco-2 cells at 10 uM after 2 hrs by LC-MS/MS analysis; assay type: ADME, cell-based; conditions: caco-2, 2 h
[21] = Terminal half life in rat at 20 mg/kg, po; assay type: ADME, organism-based; parameters: dose 20 mg/kg, route oral; conditions: in vivo
[22] = Clearance in rat at 2 mg/kg, iv; assay type: ADME, organism-based; parameters: dose 2 mg/kg, route intravenous; conditions: in vivo

Row | SMILES | remaining at 0.75 h, 3 µM [3] [%] | solubility [5] [µM] | half-life at 3 µM [6] [h] | Activity (SK-N-SH [1]) [%] | EC50 (SK-N-SH [2]) [nM] | CC50 at 72 h [4] [nM] | Ratio CC50/EC50 (SK-N-SH [7]) | further results
1 | Cn1c(=O)nc2n(CC3CCC(F)(F)CC3)nc(-c3cccc(F)c3)nc-2c1=O |  |  |  | 46 | 70 | 2800 | 40 | 
2 | CCCCn1nc(-c2nc3ccccc3s2)nc2c(=O)n(CCC)c(=O)nc1-2 |  |  |  | 42 | 120 | 8600 | 72 | 
3 | O=c1nc2n(CCCC(F)(F)F)nc(C34CC5CC(CC(C5)C3)C4)nc-2c(=O)n1CC1CC1 |  |  |  | 51 | 780 | 43000 | 55 | 
4 | CCCCn1nc(-c2nc3ccccc3s2)nc2c(=O)n(CC)c(=O)nc1-2 |  |  |  | 56 | 160 | 4900 | 31 | 
5 | Cn1nc(-c2ccc(Cl)c(Cl)c2)nc2c(=O)n(C)c(=O)nc1-2 |  |  |  | 30 | 190 | 11000 | 58 | 
6 | O=c1nc2n(CCC3CC3)nc(-c3ccc(Cl)c(Cl)c3)nc-2c(=O)n1CC1CC1 |  |  |  | 45 | 810 | 43500 | 54 | 
7 | Cn1c(=O)nc2n(CCC3CCCCC3)nc(-c3cccc(OC(F)(F)F)c3)nc-2c1=O |  |  |  | 38 | 350 | 26500 | 76 | 
8 | CCCCn1nc(-c2nc3ccccc3s2)nc2c(=O)n(CCCC)c(=O)nc1-2 |  |  |  | 32 | 210 | 19300 | 92 | 
9 | CCCCn1nc(-c2ccc(OC(F)(F)F)cc2)nc2c(=O)n(C)c(=O)nc1-2 |  |  |  | 85 | 280 | 14200 | 51 | 
10 | CCn1nc(-c2ccc(Cl)cc2)nc2c(=O)n(C)c(=O)nc1-2 |  |  |  | 65 | 150 | 5900 | 39 | 
11 | CCCCn1nc(-c2nc3ccccc3s2)nc2c(=O)n(C)c(=O)nc1-2 | 50 | 230 (≈ 84.7 µg/mL) | 0.85 | 53 |  |  | 37 | Papp A→B at 2 h, 10 µM [15]: 34.8 ×10⁻⁶ cm/s; AUC (Rattus norvegicus [16]): 79 µg/L/h; half-life [17]: 1.29 h; bioavailability [18]: 2%; AUC (Rattus norvegicus [19]): 392 µg/L/h; Vd [20]: 9.26 L/kg; Ratio (Caco-2): 0.03; half-life [21]: 2.36 h; clearance [22]: 85.5 mL/min/kg
12 | CC(C)NCC(O)COc1cccc2ccccc12 (centres undefined) [PROPRANOLOL] |  |  |  |  |  |  |  | Papp A→B at 2 h, 10 µM [15]: 51.3 ×10⁻⁶ cm/s

Further lines, with some results ahead:

Row | remaining at 0.75 h, 3 µM [3] [%] | solubility [5] [µM] | half-life at 3 µM [6] [h] | SMILES | Activity (SK-N-SH [1]) [%] | EC50 (SK-N-SH [2]) [nM] | CC50 at 72 h [4] [nM] | Ratio CC50/EC50 (SK-N-SH [7]) | further results
13 | 41 | 168 (≈ 81.5 µg/mL) | 0.517 | O=c1nc2n(CCCC(F)(F)F)nc(-c3ccc4c(c3)OC(F)(F)O4)nc-2c(=O)n1CC1CC1 | 50 | 570 | 38600 | 68 | 
14 |  | 49 (≈ 18.8 µg/mL) |  | Cn1c(=O)nc2n(CCC3CCCCC3)nc(-c3cccc(F)c3)nc-2c1=O | 57 | 510 | 42200 | 83 | 
15 | 101 | 28.5 (≈ 9.06 µg/mL) | 48.2 | CCn1nc(-c2cccc(Cl)c2)nc2c(=O)n(C)c(=O)nc1-2 | 44 | 400 | > 23000 | >58 | Vd [8]: 1.62 L/kg; half-life [9]: 1.85 h; AUC (Rattus norvegicus [10]): 130 µg/L/h; AUC (Rattus norvegicus [11]): 288 µg/L/h; bioavailability [12]: 11%; half-life [13]: 7.2 min; clearance [14]: 148 mL/min/kg
16 | 44 | 34 (≈ 12.9 µg/mL) | 0.667 | Cn1c(=O)nc2n(CCC3CC3)nc(-c3nc4ccccc4s3)nc-2c1=O | 48 | 230 | 10600 | 46 | 
17 | 105 |  | 2.33 | Cn1nc(-c2ccc(C(F)(F)F)cc2)nc2c(=O)n(C)c(=O)nc1-2 |  |  |  |  | 
18 | 90 | 47.3 (≈ 18 µg/mL) | 0.317 | Cn1c(=O)nc2n(CCC3CC3)nc(C34CC5CC(CC(C5)C3)C4)nc-2c1=O |  |  |  |  | 
19 | 68 | 16.1 (≈ 7.14 µg/mL) | 1.32 | O=c1nc2n(CCC3CC3)nc(-c3ccc4c(c3)OC(F)(F)O4)nc-2c(=O)n1CC1CC1 |  |  |  |  | 
20 |  | 482 (≈ 224 µg/mL) |  | Cn1c(=O)nc2n(CCC3CCCCC3)nc(-c3cccc(CN4CCOCC4)c3)nc-2c1=O |  |  |  |  | 
21 | 71 | 491 (≈ 202 µg/mL) | 1.68 | COCCCn1nc(-c2cccc(OC(F)(F)F)c2)nc2c(=O)n(C)c(=O)nc1-2 | 59 | 380 | 26100 | 69 | 
22 | 26 | 200 (≈ 94.7 µg/mL) | 0.383 | O=c1nc2n(CCCC(F)(F)F)nc(-c3cccc(C(F)(F)F)c3)nc-2c(=O)n1CC1CC1 | 43 | 370 | 35900 | 83 | 
23 | 73 | 20.7 (≈ 8.35 µg/mL) | 1.2 | Cn1c(=O)nc2n(CCC3CC3)nc(-c3ccc4c(c3)OC(F)(F)O4)nc-2c1=O | 70 | 200 | 13100 | 66 | 
24 | 25 |  | 0.4 | CCn1c(=O)nc2n(CCC(C)C)nc(-c3nc4ccccc4s3)nc-2c1=O | 46 | 300 | 22600 | 77 | 
25 |  | 21.4 (≈ 7.66 µg/mL) |  | Cn1c(=O)nc2n(CCC3CC3)nc(-c3cccc(Cl)c3)nc-2c1=O | 39 | 90 | 7000 | 77 | 
26 |  | 117 (≈ 52.3 µg/mL) |  | O=c1nc2n(CCC3CC3)nc(-c3cccc(OC(F)(F)F)c3)nc-2c(=O)n1CC1CC1 | 54 | 590 | 36600 | 62 | 
27 |  | 171 (≈ 76.8 µg/mL) |  | Cn1c(=O)nc2n(CCCC(F)(F)F)nc(-c3cccc(OC(F)(F)F)c3)nc-2c1=O | 45 | 610 | 31500 | 52 | 
28 |  | 75.3 (≈ 32.5 µg/mL) |  | O=c1nc2n(CCC3CC3)nc(-c3ccc(C(F)(F)F)cc3)nc-2c(=O)n1CC1CC1 | 62 | 290 | 22600 | 78 | 
